Article PMC10331583, “Control of fibrosis with enhanced safety via asymmetric inhibition of prolyl‐tRNA synthetase 1” (EMBO Molecular Medicine, 2023)
Several values for one entry are separate records, joined by “and”; a condition that tells them apart may be missing. Equal values may be shown once. Read-outs that look alike come from different tables or passages of the source.

Tests used:
[1] = system: WI‐26 VA4 cells; assay: Puromycin incorporation assay; type: cell-based, human; settings: log(inhibitor) vs. response, variable slope (four parameters); concentration in nM
Procedure: After being rinsed with cold PBS twice, the cells were collected and resuspended in 200 μl of the carbonate bicarbonate buffer (Sigma Aldrich, C3041‐50CAP) with protease inhibitor. The cell lysates were obtained by sonication and centrifugation at 20,000 g for 15 min at 4°C. After protein quantification using a Pierce™ BCA Protein Assay Kit (Thermo Fisher Scientific, 23225), 400 ng of the proteins was coated to ELISA plates for 18 h at 4°C. […] The plates were rinsed with the washing buffer for three times after each antibody incubation step. […] The amount of puromycin incorporated in proteins was determined by measuring the absorbance at 450 nm (reference wavelength at 620 nm). Experimental values marked in red with strikethrough text in the Figure Source Data file were excluded from the analysis. These values were determined by considering the values of biological and technical replicates under the same condition, as well as the values at the former and later chemical concentrations.

[2] = CellTiter‐Glo assay (cytotoxicity); settings: human, WI-26 VA4 cells
[3] = system: WI‐26 VA4 cells; assay: CellTiter‐Glo assay (cytotoxicity); settings: for activity at 0.003 µM / activity at 0.01 µM / activity at 0.03 µM / activity at 0.1 µM / activity at 0.3 µM / activity at 1 µM / activity at 3 µM / activity at 10 µM / activity at 30 µM / activity at 100 µM: Homo sapiens
[4] = system: WI‐26 VA4 cells; assay: Collagen ELISA (secreted pro‐collagen I)
[5] = log(inhibitor) vs. response, variable slope (four parameters), concentration in nM

Cc1c(Cl)ccc2c1ncn2CC(=O)C[C@H]1NCCC[C@@H]1O [DWN11748]
Puromycin, LogIC50 (best-fit value) [1]: 3.428 | CC50 at 72 h [2]: 1440 nM | activity at 0.003 µM ([3]; WI26VA4, read-out: CellTiter-Glo % of control, 3 nM, Experiment #1, replicates): 99.9% | activity at 0.003 µM ([3]; WI26VA4, read-out: CellTiter-Glo % of control, 3 nM, Experiment #2, replicates): 90.9% | activity at 0.01 µM ([3]; WI26VA4, read-out: CellTiter-Glo % of control, 10 nM, Experiment #1, replicates): 90.9% | activity at 0.01 µM ([3]; WI26VA4, read-out: CellTiter-Glo % of control, 10 nM, Experiment #2, replicates): 98.9% | activity at 0.03 µM ([3]; WI26VA4, read-out: CellTiter-Glo % of control, 30 nM, Experiment #1, replicates): 91.9% | activity at 0.03 µM ([3]; WI26VA4, read-out: CellTiter-Glo % of control, 30 nM, Experiment #2, replicates): 83.2% | activity at 0.1 µM ([3]; WI26VA4, read-out: CellTiter-Glo % of control, 100 nM, Experiment #1, replicates): 103% | activity at 0.1 µM ([3]; WI26VA4, read-out: CellTiter-Glo % of control, 100 nM, Experiment #2, replicates): 86% | activity at 0.3 µM ([3]; WI26VA4, read-out: CellTiter-Glo % of control, 300 nM, Experiment #1, replicates): 83.6% | activity at 0.3 µM ([3]; WI26VA4, read-out: CellTiter-Glo % of control, 300 nM, Experiment #2, replicates): 68.5% | activity at 1 µM ([3]; WI26VA4, read-out: CellTiter-Glo % of control, 1000 nM, Experiment #1, replicates): 70.6% | activity at 1 µM ([3]; WI26VA4, read-out: CellTiter-Glo % of control, 1000 nM, Experiment #2, replicates): 67.6% | activity at 3 µM ([3]; WI26VA4, read-out: CellTiter-Glo % of control, 3000 nM, Experiment #1, replicates): 29.5% | activity at 3 µM ([3]; WI26VA4, read-out: CellTiter-Glo % of control, 3000 nM, Experiment #2, replicates): 29.4% | activity at 10 µM ([3]; WI26VA4, read-out: CellTiter-Glo % of control, 10000 nM, Experiment #1, replicates): 30.3% | activity at 10 µM ([3]; WI26VA4, read-out: CellTiter-Glo % of control, 10000 nM, Experiment #2, replicates): 20.9% | activity at 30 µM ([3]; WI26VA4, read-out: CellTiter-Glo % of control, 30000 nM, Experiment #1, replicates): 18.8% | activity at 30 µM ([3]; WI26VA4, read-out: CellTiter-Glo % of control, 30000 nM, Experiment #2, replicates): 10.1% | activity at 100 µM ([3]; WI26VA4, read-out: CellTiter-Glo % of control, 100000 nM, Experiment #1, replicates): 0.73% | activity at 100 µM ([3]; WI26VA4, read-out: CellTiter-Glo % of control, 100000 nM, Experiment #2, replicates): 0.58% | activity at 0.003 µM ([3]; WI26VA4, read-out: CellTiter-Glo % of control, average, 3 nM, average): 102% | activity at 0.01 µM ([3]; WI26VA4, read-out: CellTiter-Glo % of control, average, 10 nM, average): 96.5% | activity at 0.03 µM ([3]; WI26VA4, read-out: CellTiter-Glo % of control, average, 30 nM, average): 91.9% | activity at 0.1 µM ([3]; WI26VA4, read-out: CellTiter-Glo % of control, average, 100 nM, average): 94.6% | activity at 0.3 µM ([3]; WI26VA4, read-out: CellTiter-Glo % of control, average, 300 nM, average): 75.5% | activity at 1 µM ([3]; WI26VA4, read-out: CellTiter-Glo % of control, average, 1000 nM, average): 63.5% | activity at 3 µM ([3]; WI26VA4, read-out: CellTiter-Glo % of control, average, 3000 nM, average): 27.5% | activity at 10 µM ([3]; WI26VA4, read-out: CellTiter-Glo % of control, average, 10000 nM, average): 25.4% | activity at 30 µM ([3]; WI26VA4, read-out: CellTiter-Glo % of control, average, 30000 nM, average): 13.7% | activity at 100 µM ([3]; WI26VA4, read-out: CellTiter-Glo % of control, average, 100000 nM, average): 0.5% | CellTiter-Glo LogIC50 (best-fit value) [3, 5]: 3.159 | Collagen, % of control (single replicates per experiment) ([4]; 3 nM, 0.003 µM): 95.16 % of control and 105.95 % of control and 100.28 % of control and 91.81 % of control and 92.46 % of control and 107.08 % of control and 97.10 % of control and 100.74 % of control and 124.62 % of control and 100.86 % of control | Collagen, % of control (single replicates per experiment) ([4]; 100 nM, 0.1 µM): 102.93 % of control and 54.86 % of control and 79.76 % of control and 92.40 % of control and 101.85 % of control and 87.72 % of control and 81.93 % of control and 104.58 % of control and 120.36 % of control | CC50/collagen IC50 ([4]; Fig 5E): 5.39 | IC50 ([4]; Homo sapiens, WI26VA4, read-out: Collagen IC50 (best-fit value), log(inhibitor) vs. response, variable slope (four parameters) (converted)): 267 nM | activity at 0.03 µM ([4]; Homo sapiens, WI26VA4, read-out: Collagen, % of control (single replicates per experiment), 30 nM): 104% | activity at 0.3 µM ([4]; Homo sapiens, WI26VA4, read-out: Collagen, % of control (single replicates per experiment), 300 nM): 46.5% | activity at 1 µM ([4]; Homo sapiens, WI26VA4, read-out: Collagen, % of control (single replicates per experiment), 1000 nM): 7.82% | activity at 0.003 µM ([4]; Homo sapiens, WI26VA4, read-out: Collagen, % of control, average, 3 nM, average): 102% | activity at 0.01 µM ([4]; Homo sapiens, WI26VA4, read-out: Collagen, % of control, average, 10 nM, average): 100% | activity at 0.03 µM ([4]; Homo sapiens, WI26VA4, read-out: Collagen, % of control, average, 30 nM, average): 97.7% | activity at 0.1 µM ([4]; Homo sapiens, WI26VA4, read-out: Collagen, % of control, average, 100 nM, average): 88.9% | activity at 0.3 µM ([4]; Homo sapiens, WI26VA4, read-out: Collagen, % of control, average, 300 nM, average): 45.3% | activity at 1 µM ([4]; Homo sapiens, WI26VA4, read-out: Collagen, % of control, average, 1000 nM, average): 9.08% | activity at 3 µM ([4]; Homo sapiens, WI26VA4, read-out: Collagen, % of control, average, 3000 nM, average): 2.58% | activity at 10 µM ([4]; Homo sapiens, WI26VA4, read-out: Collagen, % of control, average, 10000 nM, average): 2.33% | Collagen HillSlope (best-fit value) ([4]; log(inhibitor) vs. response, variable slope (four parameters)): -2.011 | Collagen LogIC50 (best-fit value) [4, 5]: 2.427 | Relative (CC50)/(collagen IC50) ([4]; relative to HF, Fig 5E): 1.61
